Results on two substances are retold here after publication PMC11435135, “Diagnosis of Prostate Cancer with a Neurotensin–Bombesin Radioligand Combination—First Preclinical Results” (Pharmaceutics, 2024).

The test system of data set [1] is GRPR. Conditions: cited from earlier work. An excerpt:
(§1) We decided to investigate the potential advantages–shortcomings of the “radioligand cocktail” approach in human prostate cancer, prompted by the reported co-expression of NTS1R and GRPR in this frequently occurring cancer type. For such a purpose, we opted for the PC-3 cell line to conduct our cell uptake studies as well as to induce subcutaneous xenografts in mice, as it co-expresses the two targets of interest. Based on our previous work on NTS1R- and GRPR-directed radioligands, we selected a cocktail consisting of [^99mTc]Tc-DT11 (NTS1R-specific) [[47] ...

The test system of data set [2] is PC-3 cells. The experiment in a line: Uptake/internalization of [99mTc]Tc-DT11 in PC-3 cells. It counts as cell-based, human. Conditions: radioligand alone, 1 h at 37 °C. The procedure:
The day preceding the experiment, PC-3 cells were transferred in 6-well plates (1 × 10^6 cells in 3 mL culture medium per well), and the plates were positioned in the incubator. On the day of the experiment, the plates were placed on ice and the supernatant was aspirated and discarded. The cells were rinsed with 2 × 2 mL ice-cold internalization medium (IM, RPMI-1640 with 1% FBS) and the plates were placed on the bench. Warm IM (1.2 mL at 37 °C) was added to the wells, followed by either warm IM (150 µL—3 upper wells, total series) or excess NT in IM (150 µL to a final concentration of 1 µM—3 lower wells, non-specific series). In a last step, [^99mTc]Tc-DT11 in phosphate-buffered saline with 0.5% bovine serum albumin (PBS-BSA) was added to all plates (250 fmol peptide, ≈100,000 cpm). Cells were incubated for 1 h at 37 °C in an Incubator-Orbital Shaker unit (MPM Instr. SrI, Bernareggio, Milan, Italy). Incubation was interrupted by placing the plates on ice and collecting the supernatants in separate plastic tubes. The cells were rinsed with ice-cold PBS-BSA (1 mL) and the liquid was collected and combined with the respective supernatant tubes. The plates were placed on the bench and incubated 2 × 5 min with acid buffer (2 × 600 µL, 50 mM Gly in 0.1 M NaCl, pH 2.8). Supernatants were again collected and combined in individual tubes (membrane-bound fractions). Cells were rinsed with ice-cold PBS-BSA (1 mL), which was aspirated and discarded. Finally, the cells were treated with 2 × 600 µL 1 M NaOH, detached, collected and combined in separate tubes (internalized fractions). The radioactivity of all tubes was measured in the gamma counter. The percentage of specific membrane-bound and internalized fractions (their sum corresponding to specific cell-uptake) vs. total radioactivity added per well were calculated by subtracting non-specific values from totals. Results were expressed as average values ± standard deviation (sd) from 3 independent experiments performed in triplicate.

Data set [3] deals with PC-3 xenografts. On the set-up: species or system mice. Conditions: mouse, in vivo. Here is the method:
The biodistribution of [^99mTc]Tc-DT11 was studied in male severe combined immunodeficiency (SCID) mice (11 mice 6-weeks of age on arrival date, 18 ± 4 g, NCSR “Demokritos” Animal House, Athens, Greece) bearing PC-3 xenografts in their flanks. Tumor induction was achieved by subcutaneous injection of a PC-3 cell suspension (12 × 10^6 cells in 150 µL PBS) in their flanks. The animals were kept under aseptic conditions and, 3 weeks later, developed palpable masses at the inoculation sites (150 ± 50 mg); biodistribution was then conducted. On the day of the experiment, animals were divided into three groups: controls (n = 4), Entresto® (n = 4) and block (n = 3). All mice were injected in the tail vein with a bolus of [^99mTc]Tc-DT11 (100 µL, 185 kBq, 5 pmol total peptide in vehicle). […] Blood was collected from the heart, and tumors, organs and tissue samples of interest were excised and weighted, and their radioactivity content was measured together with the proper standards of the injected activity in the gamma counter. The percent of injected activity per gram (%IA/g) was calculated, and the results were provided as mean %IA/g values ± sd for each group. […]

The subject of data set [4] is NTS1R. Conditions: cited from earlier work.
Excerpt: as §1

The mark [5] stands for this setting: NTS1R-specific, % of added activity, mean ± sd, 3 experiments in triplicate.

Consider “N4-PEG2-DPhe-Gln-Trp-Ala-Val-Gly-His-Leu-NHEt [[^99mTc]Tc-DB7, Tc-99m labeled DB7, GRPR-specific bombesin-based radioligand (GRPR antagonist)]”, for which the “affinity to the respective receptor” value in data set [1] is recorded as “sub-nanomolar”.
“N4-Lys(MPBA-PEG4)-Arg-Arg-Pro-Tyr-Ile-Leu-OH [[^99mTc]Tc-DT11, Tc-99m labeled DT11, NTS1R-specific neurotensin-based radioligand]”: in data set [2], the “internalized fraction as share of cell-associated activity” value was “≈ 87%” and the “membrane-bound fraction as share of cell-associated activity” value is “≈ 13%”. Further, in data set [2] (setting [5]), the internalized fraction is given as 1.22 ± 0.26% and the membrane-bound fraction was determined as 0.18 ± 0.12%. In data set [3], the tumor-to-kidney ratio entry was “≈ 1.5”. For the same substance, the “affinity to the respective receptor” value in data set [4] was “sub-nanomolar”.
